Data reported in patent publication US11679126B2, “Methods to enhance microvascular engraftment of bioengineered and primary tissues” (Children's Medical Center Corporation, priority 2016, dated 2023).

Tests used:
[1] = test system: A-Grafts (assembled human vascular networks); assay: A-Graft revascularization after implantation into nude mice; format: in vivo
Experimental: (§1) Photopolymerizable methacrylated gelatin (GelMA) hydrogel was synthesized as previously described (Chen, et al. Adv. Funct. Mater. 22: 2027-2039 (2012)). GelMA prepolymer solution was prepared in PBS at 80° C. (5 w/v % final) with photoinitiator Irgacure 2959 (0.5 w/v %; CIBA Chemicals), and then allowed to cool down to 37° C. in a water bath. ECFCs and MSCs (4×10^5 total; 1:1 ratio) were suspended in 200 μL of GelMA solution and the mixture was polymerized by exposure to 7.5 mW/cm^2 UV light for 15 s at 37° C. Polymerized cell-laden constructs were referred to as unassembled grafts or U-Grafts. Alternatively, on indicated experiments, U-Grafts were constructed with ice-cold Phenol Red-free Matrigel (BD Bioscience). […]
(§2) Microvessel density was reported as the average number of erythrocyte-filled vessels (vessels/mm^2) in H&E-stained sections from the middle of the implants as previously described (Melero-Martin, et al. Circ. Res. 103:194-202 (2008)). The entire area of each section was analyzed. On specified experiments, human-specific microvessel density was quantified by evaluation of slides immunostained for human-specific CD31 (h-CD31). Perfused microvessel density was measured by injection of FITC-labeled lectins (UEA-1 or Iso-B4) before euthanizing graft-bearing mice, followed by staining of lectin-labeled vessels with anti-UEA-1 or anti-FITC antibodies. […]

neutrophils [2] = assay: Neutrophil recruitment into implanted A-Grafts at day 2 (flow cytometry); format: in vivo, nude mice
Experimental: as §1
(§3) Grafts were removed from euthanized mice and cells were retrieved by enzymatic (1 mg/mL collagenase and 2.5 U/mL dispase) digestion for 1 h at 37° C. […] Retrieved cells were also stained for flow cytometry and analyzed using a Guava easyCyte 6HT/2L flow cytometer (Millipore Corporation, Billerica, Mass.) and FlowJo software (Tree Star Inc., Ashland, Oreg.). […] In indicated experiments, retrieved cells were sorted into mCD45+/mLy6G+(neutrophils) and mCD45+/mLy6G−cells by fluorescence-activated cell sorting (FACS) using a FACSAria II 5-LASER sorter system (BD Bioscience). Sorted cells were analyzed immediately for gene expression by qPCR. […]

CXCL1, CXCL8, and IL6 = assay: Human cytokine protein array of conditioned media from A-Grafts; format: cell-based; conditions: A-Grafts exposed for 24 h
Experimental: as §1, with “Bioscience). Assembled grafts or A-Grafts were constructed by culturing U-Grafts in vitro for 7 days using EGM2 with […]. A-Grafts contained easily observable, fully-assembled vascular networks. Both, U-Grafts and A-Grafts were subcutaneously implanted into back of 6-week-old male athymic nu/nu mice for engraftment studies. On specified experiments, DsRed-labeled ECFCs were used to visualize the formation of assembled vascular networks in A-Grafts.” for “Bioscience).”
The presence of selected cytokines was evaluated in samples of CM with human cytokine protein arrays (R&D Systems Inc.) according to the manufacturer's instructions. […]

neutrophils [3] = assay: Neutrophil recruitment plug assay; format: in vivo, nu/nu mice; conditions: Matrigel plugs containing CM, day 2
Experimental: Concentrated CM (50 μL) was mixed with 200-μL of Matrigel and injected subcutaneously into nu/nu mice. After 2 days, plugs were explanted and infiltrated cells were retrieved by enzymatic digestion and subjected to flow cytometric analysis. Concentrated basal media (basal-M: EBM-2, 5% FBS) served as control. In indicated experiments, neutralizing antibodies against IL6, CXCL1 or CXCL8 (5 μg/antibody/plug) were added to concentrated CM 30 min prior to implantation. Individual neutralizing antibodies and the combination of three were compared.

[4] = test system: m-Islets endogenous gfp+ microvessels; assay: Vascular sprouting of m-Islets embedded in hydrogel in vitro; format: cell-based, mouse; conditions: 7 days in vitro
Excerpt: In order to develop an interface for the engraftment of islets, we embedded isolated m-Islets in our hydrogel in the presence or absence of DAPT (a γ-secretase inhibitor) and examined the effect on the vasculature of islets for 7 days. […] This is consistent with previous data in which transiently blocking Notch enhanced the revascularization potential of A-grafts (FIG. 14) (52). We also examined the effect of unassembled DsRed-ECFCs (FIG. 19B). […] Moreover, the newly formed ECFC-lined vessels (DsRed+) interacted with the gfp+ vasculature of the m-Islets, and this interconnectivity was enhanced in the presence of DAPT (FIG. 19B).

[5] = test system: U-Grafts (human ECFCs + MSCs); assay: U-Graft vascularization after subcutaneous implantation into treated nude mice; format: in vivo; parameters: number of perfused vessels at day 7 in U-grafts: dose or concentration left out as unconfirmed; conditions: for U-Graft vascularization / microvessel density compared with control: U-Grafts in treated mice, day 7
Experimental: as §1, with “Bioscience). Assembled grafts or A-Grafts were constructed by culturing U-Grafts in vitro for 7 days using EGM2 with […]. A-Grafts contained easily observable, fully-assembled vascular networks. Both, U-Grafts and A-Grafts were subcutaneously implanted into back of 6-week-old male athymic nu/nu mice for engraftment studies. On specified experiments, DsRed-labeled ECFCs were used to visualize the formation of assembled vascular networks in A-Grafts.” for “Bioscience).”
as §2
[…] Neutrophil recruitment at day 2 and graft vascularization at day 7 were measured as described before. […]

neutrophils [6] = assay: Neutrophil recruitment into implanted U-Grafts at day 2 (flow cytometry); format: in vivo, nude mice; conditions: 7.5 mg/kg intraperitoneally daily
Experimental: as §1, §3

CXCR2 = molecular target: T1, CXCR2 (Homo sapiens, UniProt P25025); conditions: in vitro and in vivo, previous studies; cited from earlier work
T1 sequence (P25025 1-360): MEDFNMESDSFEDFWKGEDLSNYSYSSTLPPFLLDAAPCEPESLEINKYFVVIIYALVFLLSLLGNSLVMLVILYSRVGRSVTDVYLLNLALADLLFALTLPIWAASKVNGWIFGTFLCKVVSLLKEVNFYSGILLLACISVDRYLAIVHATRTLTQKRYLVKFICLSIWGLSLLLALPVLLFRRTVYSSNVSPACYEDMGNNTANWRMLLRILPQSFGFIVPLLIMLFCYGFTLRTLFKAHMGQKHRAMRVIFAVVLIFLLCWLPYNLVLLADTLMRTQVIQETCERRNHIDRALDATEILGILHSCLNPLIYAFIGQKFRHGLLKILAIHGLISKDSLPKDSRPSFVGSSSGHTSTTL

Row | Compound | perivascular coverage (α-SMA+ cells) of human vessels in A-Grafts ([1]; day 7, A-Grafts treated 24 h before implantation) | perfused microvessel networks in A-Grafts ([1]; day 7 in vivo, compared with untreated / basal-M A-Grafts) | neutrophils in A-Grafts compared with control (neutrophils [2]) | expression of cytokines in conditioned media of A-Grafts (CXCL1, CXCL8, and IL6) | neutrophil recruitment into subcutaneous plugs (neutrophils [3]) | sprouting activity of endogenous gfp+ microvessels (number and length of sprouts) ([4]; m-Islets in hydrogel, vs untreated islets) | interconnectivity between ECFC-lined vessels (DsRed+) and m-Islets vasculature (gfp+) ([4]; m-Islets with unassembled DsRed-ECFCs in hydrogel) | U-Graft vascularization / microvessel density compared with control [5] | neutrophil presence in implanted U-Grafts (neutrophils [6]) | neutrophil chemotaxis in response to CXCL8 (CXCR2) | number of perfused vessels at day 7 in U-grafts ([5]; mice treated daily, intraperitoneal)
1 | C[C@H](NC(=O)Cc1cc(F)cc(F)c1)C(=O)N[C@H](C(=O)OC(C)(C)C)c1ccccc1 [DAPT, N—[N-(3,5-Difluorophenylacetyl-L-alanyl)]-S-phenylglycine t-Butyl ester] | did not compromise proper perivascular coverage | more extensive networks of perfused microvessels | significantly more | reactivated the expression of several cytokines | recruited significantly more neutrophils | significantly higher | enhanced |  |  |  | 
2 | O=C(Nc1ccc([N+](=O)[O-])cc1O)Nc1ccccc1Br [SB225002] |  |  |  |  |  |  |  | significantly lower | significantly impaired | effectively inhibits | 
3 | NC(=O)c1ccc(-c2nc(-c3ccccn3)c(-c3ccc4c(c3)OCO4)[nH]2)cc1 [SB432542] |  |  |  |  |  |  |  | completely abrogated |  |  | insignificant
